Assay results published in PMC13372822 (The EMBO Journal, 2026).
Counter-ions that a name gives are not always drawn.

Experiments:
SUCR1 = target: T1, SUCR1 (Homo sapiens, UniProt Q9BXA5); assay: Calcium mobilization assay, wild-type SUCR1 in HEK293 stably expressing Gα16; type: cell-based;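 on Emax: percent of the maximal response to succinate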
T1 construct: The full-length human SUCR1 and mutations were fused after the HA signal peptide and Flag tag; HA signal peptide (N); Flag (N); expressed in transfected cells; host or cells: HEK293 stably expressing Gα16 (pcDNA6.0, transient electroporation)
T1 sequence (Q9BXA5 1-334): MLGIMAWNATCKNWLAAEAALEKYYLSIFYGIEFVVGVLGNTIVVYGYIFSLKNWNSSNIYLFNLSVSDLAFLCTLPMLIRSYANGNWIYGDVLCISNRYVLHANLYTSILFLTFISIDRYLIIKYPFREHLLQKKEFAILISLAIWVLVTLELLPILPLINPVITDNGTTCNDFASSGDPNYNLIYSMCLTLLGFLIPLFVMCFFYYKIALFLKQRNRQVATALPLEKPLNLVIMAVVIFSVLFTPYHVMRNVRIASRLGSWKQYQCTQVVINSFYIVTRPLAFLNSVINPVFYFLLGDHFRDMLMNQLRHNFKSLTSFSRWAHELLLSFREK
Protocol: (§1) The full-length human SUCR1 and mutations were fused after the HA signal peptide and Flag tag. The constructs were cloned into pcDNA6.0 vector for HEK293 system.
(§2) HEK293 cells were obtained from ATCC (Manassas, VA, USA) and cultured in DMEM supplemented with 10% (v/v) FBS, 100 mg/L penicillin, and 100 mg/L streptomycin in 5% CO2 at 37 °C. For transient transfection, ~2.5 × 10^6 cells were mixed with 2 µg plasmids in 200 µL transfection buffer, and electroporation was carried out with a Scientz-2C electroporation apparatus (Scientz Biotech, Ningbo, China). The experiments were carried out 24 h after transfection. HEK293 cell lines stably expressing Gα16 were constructed by our laboratory.
(§3) For OXGR1, plasmids were transfected into HEK293 (other receptors were transfected into HEK293 stably expressing Gα16) and seeded at a density of 4 × 10^4 per well into 96-well culture plates and incubated for 24 h at 37 °C in 5% CO2. The next day, Cells were incubated with 2 μM/L Fluo-4 AM in HBSS supplemented with 5.6 mM/L D-glucose and 250 μM/L sulfinpyrazone at 37 °C for 45 min. […] Three independent measurements were repeated, i.e., three different transfections, with three technical replicates performed for each experiment. EC50 and Emax values for each curve were calculated by Prism 8.0 software (GraphPad Software).

[1] = tested on: mock-transfected HEK293 cells; assay: Calcium assay in mock-transfected (empty vector) HEK293 cells; type: cell-based
Source text: Figure. R3 | Activity of the compounds on OXGR1 using calcium assays.
Concentration-response curves of the four agonists in activating OXGR1 through the calcium assays. HEK293 cells were transfected with OXGR1 or empty vector by electroporation.
Cells were then loaded with Fluo-4 AM and intracellular calcium changes after stimulation with different compounds were monitored. Responses were normalized to 100% for the maximal response of each compound on OXGR1. Data are mean ± S.E.M. from three independent experiments (n = 3), with three technical replicates performed for each […]
(1 picture or pasted object on this page, not shown here)

[2] = tested on: OXGR1 mutants (variant named in the endpoint); assay: Calcium mobilization assay, OXGR1 mutants in HEK293; details: for Emax: each ligand normalized to WT (100%);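 on all read-outs here: human OXGR1 variants transiently expressed in HEK293 cells, with intracellular calcium read out by Fluo-4 AM fluorescence, measured 24 h after transfection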
Protocol: as §1, §2, §3

OXGR1 = OXGR1 (Homo sapiens, UniProt Q96P68); assay: Calcium mobilization assay (Fluo-4 AM), wild-type OXGR1 in HEK293
Protocol: as §1, §2, §3

- Emax (SUCR1; HEK293, SUCR1 WT, Emax relative to the SUC, read-out: Emax): 89 ± 1%
- EC50 (SUCR1; SUCR1 WT): 0.21 ± 0.07 mM
- EC50 ([2]; OXGR1 D185A): > 1 mM
- EC50 ([2]; OXGR1 F113A): > 1 mM
- EC50 ([2]; OXGR1 F113W): 1 ± 0.37 mM
- EC50 ([2]; OXGR1 F257A): > 1 mM
- EC50 ([2]; OXGR1 F257Y): 1.9 ± 0.3 mM
- EC50 ([2]; OXGR1 H114A): 4.2 ± 0.3 mM
- EC50 ([2]; OXGR1 H114L): > 1 mM
- EC50 ([2]; OXGR1 I172A): > 1 mM
- EC50 ([2]; OXGR1 L36A): > 1 mM
- EC50 ([2]; OXGR1 L89A): > 1 mM
- EC50 ([2]; OXGR1 L186A): > 1 mM
- EC50 ([2]; OXGR1 L186F): > 10 mM
- EC50 ([2]; OXGR1 L299P): > 1 mM
- EC50 ([2]; OXGR1 M168I): 3.2 ± 0.3 mM
- EC50 ([2]; OXGR1 N28A): 0.58 ± 0.03 mM
- EC50 ([2]; OXGR1 R110A): > 1 mM
- EC50 ([2]; OXGR1 R110E): > 10 mM
- EC50 ([2]; OXGR1 R110Q): > 1 mM
- EC50 ([2]; OXGR1 R264A): > 10 mM
- EC50 ([2]; OXGR1 R268A): > 1 mM
- EC50 ([2]; OXGR1 R288A): > 1 mM
- EC50 ([2]; OXGR1 R288E): > 1 mM
- EC50 ([2]; OXGR1 R288Q): > 1 mM
- EC50 ([2]; OXGR1 Y40A): > 1 mM
- EC50 ([2]; OXGR1 Y93A): > 1 mM
- EC50 ([2]; OXGR1 Y284A): > 1 mM
- EC50 (OXGR1; EC50, OXGR1 WT, mutant series (Appendix Table S4)): 2 ± 0.4 mM
- Emax (OXGR1; HEK293, OXGR1 WT, each ligand normalized to WT (100%)): 100 ± 4%
- activity in OXGR1-transfected HEK293 cells (OXGR1; in words): robust activity
SMILES: O=C(O)/C=C\C(=O)O [MA, maleate]
- activity in mock-transfected cells [1]: no activity
- Emax ([2]; OXGR1 D185A): 11± 3 WT%
- Emax ([2]; OXGR1 E97A): 79± 7 WT%
- Emax ([2]; OXGR1 F113A): 5.1± 10 WT%
- increase in potency by F113W mutation ([2]; OXGR1 F113W versus WT): ~ 2 fold
- Emax ([2]; OXGR1 F113W): 99± 14 WT%
- Emax ([2]; OXGR1 F257A): 6.6± 7 WT%
- Emax ([2]; OXGR1 F257Y): 93± 2 WT%
- Emax ([2]; OXGR1 H114A): 79± 4 WT%
- Emax ([2]; OXGR1 H114L): -4.4± 2 WT%
- Emax ([2]; OXGR1 H281A): 67±4 WT%
- Emax ([2]; OXGR1 I172A): 11± 2 WT%
- Emax ([2]; OXGR1 L36A): 10± 3 WT%
- Emax ([2]; OXGR1 L89A): 6.9± 1 WT%
- Emax ([2]; OXGR1 L186A): 14± 2 WT%
- Emax ([2]; OXGR1 L186F): 58± 4 WT%
- Emax ([2]; OXGR1 L299P): 7.8±3 WT%
- activation of OXGR1 L299P ([2]; OXGR1 L299P, in words): abolished
- Emax ([2]; OXGR1 M168I): 71± 0.9 WT%
- Emax ([2]; OXGR1 N28A): 120± 2 WT%
- Emax ([2]; OXGR1 R110A): -4.4± 2 WT%
- Emax ([2]; OXGR1 R110E): 36± 30 WT%
- Emax ([2]; OXGR1 R110Q): 14± 5 WT%
- Emax ([2]; OXGR1 R177A): 130± 8 WT%
- Emax ([2]; OXGR1 R264A): 54± 5 WT%
- Emax ([2]; OXGR1 R268A): 22± 4 WT%
- Emax ([2]; OXGR1 R288A): -2.1±4 WT%
- Emax ([2]; OXGR1 R288Q): 16±2 WT%
- Emax ([2]; OXGR1 Y40A): -1.9± 6 WT%
- Emax ([2]; OXGR1 Y93A): 17± 20 WT%
- Emax ([2]; OXGR1 Y284A): 4.8±4 WT%
